The record followed here is PubChem BioAssay AID179 (DTP/NCI, 2004).

This test deals with CEM cells HIV-1 protection, formazan growth assay. The test is described as follows: NCI AIDS Antiviral Assay. Particulars: for pIC50: measured here: growth of uninfected CEM cells. The method in brief:
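Steps: treat uninfected and HIV-1-infected human CEM cells at five drug levels; quantify growth by soluble formazan; retest any compound reaching 50% protection; classify actives from the retest.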

Structures are written as SMILES. pEC50, pIC50: −log10 of the molar value. Activity calls are given as the source filed them.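 The calls were made as follows: active = compounds giving half or more protection of infected cells from virus-caused growth loss, again on retest; inactive = the rest.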

Turning to `O=S(=O)(CC#CCO)c1cccc2ccccc12`, the result was inactive.

Broadly, the pEC50 is the EC50 on a negative log10 scale, so that one unit is a factor of ten. What is called pIC50 is the negative decadic logarithm of the IC50, by convention in mol/L. High values mean a small IC50, low ones a large IC50. For the molecule `CC(=O)C(=Cc1ccc(Br)cc1)C(C)=O`, the pEC50 was below 4.29 and the pIC50 is 4.56. Taken in the same sequence, the figures for `COc1cc(OC)c(-c2cc(=O)c3c(OC)c(OC)c(OC)c(OC)c3o2)cc1OC` were below 3.70 and 4.71.

Turning to `CC1(O)OC(=O)C2=C1CCC1C2CCC2(C)C(O)CCC12` (stereo not given), the pEC50 is below 3.70 and the pIC50 is below 3.70. For the molecule `COC(=O)c1ccc(N2CCOS(=O)OCC2)cc1OC(=O)c1ccccc1`, the pEC50 is below 3.70 and the pIC50 is 4.48. Take `COC1/C=C/OC2(C)Oc3c(C)c(O)c4c(O)c(c(C=NNC(=O)c5ccc(N)cc5)c(O)c4c3C2=O)NC(=O)/C(C)=C/C=C/C(C)C(O)C(C)C(O)C(C)C(OC(C)=O)C1C` (stereo not given): the pEC50 is below 3.86 and the pIC50 was 3.97. As to `CCOC(=O)/C(=C\c1ccc(OC)cc1)C(C)=O`, the pEC50 is below 3.56 and the pIC50 is 3.93. For the molecule `Cc1cccc(C)c1NC(=O)CCC(=O)NNc1nnc(C)n1N`, the pEC50 was below 3.40 and the pIC50 is below 3.40. In the case of `COC(C(O)c1ccc2c(c1)OCO2)P(=O)(c1ccccc1)c1ccccc1` (stereo not given), the outcome was inactive. In the case of `Cc1ccc(S(=O)(=O)n2cc(/C=C/C#N)c(/C=C/C#N)c2)cc1`, the result was inactive. For the molecule `N#C/C(=C\NC(=S)Nc1ccc(S(N)(=O)=O)cc1)C(=O)c1ccc2ccccc2c1`, the pEC50 is below 3.70 and the pIC50 is 3.81. In the case of `O=S(=O)(O)c1cc2cc(S(=O)(=O)O)c(O)cc2cc1O`, the outcome was inactive. On to `CCOC(=O)NC(NNc1ccc([N+](=O)[O-])cc1[N+](=O)[O-])(C(F)(F)F)C(F)(F)F`, for which the pEC50 is below 3.70 and the pIC50 is 4.36. On to `C/C1=C\CC[C@@]2(C)O[C@@H]2[C@H]2OC(=O)C(C)C2C[C@H]1O` (stereo not given in full), for which the pEC50 is below 3.70 and the pIC50 was below 3.70. Turning to `COC1(OC)C2(Cl)C(Cl)=C(Cl)C1(Cl)C1c3ccc(C(C)=O)c4cccc(c34)C12` (stereo not given), the outcome was inactive. For the molecule `O=C1OC2CCCC1O2` (stereo not given), the pEC50 was below 3.70 and the pIC50 was below 3.70. On to `CCOP(=O)(C=C=C(C)C)OCC`, for which the pEC50 was below 3.70 and the pIC50 was below 3.70. Consider `COc1ccc(-c2nnc(-c3c(C)n(C)n(-c4ccccc4)c3=O)o2)cc1`, for which the pEC50 is below 3.70 and the pIC50 is below 3.70. Consider `COc1ccccc1NC(=O)C1=C(C)NC(C)=C(C(=O)Nc2ccccc2OC)C1c1ccc(C2C(C(=O)Nc3ccccc3OC)=C(C)NC(C)=C2C(=O)Nc2ccccc2OC)cc1`, for which the pEC50 was below 5.79 and the pIC50 is below 5.79. On to `COc1cc2nc3n(c2cc1OC)C(O)c1c(Cl)nc(SC)nc1S3` (stereo not given), for which the pEC50 is below 3.70 and the pIC50 is 5.11. Take `CC(=O)OCC(=O)[C@@]1(O)CC[C@H]2[C@@H]3C[C@H](C)C4=CC(=O)C=C[C@]4(C)[C@@]3(F)[C@@H](O)C[C@@]21C`: the result was inactive. On to `CSC1(CC(=O)N(C)C)C(=O)Nc2ccccc21` (stereo not given), for which the pEC50 is below 3.70 and the pIC50 is below 3.70.

For `CCOC(=O)CC(C)C1(C(=O)OCC)CCCCC1=O` (stereo not given), the pEC50 is below 3.48 and the pIC50 was below 3.48.

`CC(C)(C)N1OC2(CCCCC2)n2c(=O)c3ccccc3c(=O)n2C1c1ccccc1` (stereo not given): the pEC50 is below 3.23 and the pIC50 was below 3.23.

Consider `CCN(CC)CCOC(=O)C(c1ccccc1)c1ccccc1`, for which the pEC50 is below 3.70 and the pIC50 is below 3.70. Take `N#Cc1c(Cl)c2cccnc2n2c1nc1ccccc12`: the pEC50 is below 3.70 and the pIC50 was 6.47. Take `C=[N+]([O-])CCC1(O)C(CO[Si](C)(C)C(C)(C)C)OC(n2ccc(=O)[nH]c2=O)C1O[Si](C)(C)C(C)(C)C` (stereo not given): the pEC50 was below 3.70 and the pIC50 is 4.92. In the case of `Cc1c(C)c([N+](=O)[O-])c2c(c1N)C(=O)c1ccccc1C2=O`, the result was inactive. `COc1cc(-c2oc3c(OC)c(OC)c(OC)c(OC)c3c(=O)c2OC)cc(OC)c1OC`: the pEC50 is below 3.70 and the pIC50 was 4.75. Consider `Cc1ccc(S(=O)(=O)c2c(C)cc(C)cc2C)cc1`, for which the pEC50 was below 3.70 and the pIC50 was 4.90. On to `COc1ccc(Cc2c3cc(O)c(=O)cc-3ccn2C)cc1`, for which the pEC50 is below 4.47 and the pIC50 is 5.19. Taken in the same sequence, the figures for `S=C(S)N1CCN(c2cccc(Cl)c2)CC1` were below 3.70 and 3.74. Taken in the same sequence, the figures for `O=[N+]([O-])c1ccc2c(c1)NC(O)C(O)N2` (stereo not given) were below 3.70 and 3.76.

Consider `CC(C)(C)C1=CC(=N/N=c2\scc(-c3ccccc3)n2-c2ccccc2)C=C(C(C)(C)C)C1=O`, for which the pEC50 was below 4.82 and the pIC50 was below 4.82. As for `COC(=O)C1(SC)C2CCC3C2CCC31` (stereo not given), the pEC50 was below 3.70 and the pIC50 was below 3.70. `CCOC(=O)C(CCCC(C(=O)OCC)C(=O)OCC)C(=O)OCC`: the pEC50 was below 3.70 and the pIC50 is below 3.70. As for `O=C(/C=C/c1ccc(O)c(O)c1)OCCc1cccc2ccccc12`, the pEC50 was below 3.70 and the pIC50 is 5.56. Taken in the same sequence, the figures for `CSC1(Cc2ccccn2)C(=O)Nc2cccc([N+](=O)[O-])c21` (stereo not given) were below 3.70 and 4.50. For the molecule `CCC(C#N)N(Cc1cccc(CN(C(C)=O)C(C#N)CC)c1)C(C)=O` (stereo not given), the pEC50 is below 3.70 and the pIC50 is 3.72.

As to `CC1(Cl)CC2OC3(Br)C=CC(C)(O)C2(CC1Br)C3(C)C` (stereo not given), the pEC50 is below 3.99 and the pIC50 was below 3.99. For the molecule `Cn1c2ccccc2c2nnc(N/N=C/c3ccc([N+](=O)[O-])o3)nc21`, the pEC50 was below 3.70 and the pIC50 is below 3.70. For `CC1(C)CNC(=O)C2(CCCO2)CNC(C)(C)CNC(=O)C2(CCCO2)CN1` (stereo not given), the pEC50 is below 3.90 and the pIC50 was below 3.90. In the case of `CCOC(=O)c1c(N)ssc1=S`, the pEC50 was 4.06 and the pIC50 is 3.80. Taken in the same sequence, the figures for `CCOC(=O)C1(C/C=C/CBr)Cc2ccccc2C1=O` (stereo not given) were below 3.70 and 5.78. With `CC(C(=O)c1ccccc1)C1(O)C(=O)Nc2ccccc21` (stereo not given), the outcome was inactive. Turning to `COc1ccc(C(=O)CC(c2ccccc2)[C@H]2C(c3ccc(OC)cc3)=Nc3c(nc(SC)n(C)c3=O)NC2c2ccccc2)cc1` (stereo not given in full), the pEC50 was below 3.70 and the pIC50 is 4.72. For the molecule `CC1CCOC(=O)/C=C/C=C/C(=O)OC2CC3OC4C5OC5(C)C(O)CC4(COC(=O)C1O)C2(C)C31CO1` (stereo not given), the pEC50 was below 5.70 and the pIC50 is 7.33. `COc1ccc2ncc(COC(=O)NC3CCCCC3)c(COC(=O)NC3CCCCC3)c2c1`: the pEC50 is below 3.76 and the pIC50 is 4.39. For `CC1=C/C(=C(\c2cc(C)c(O)c(C(=O)O)c2)c2c(Cl)cccc2Cl)C=C(C(=O)O)C1=O`, the outcome was inactive.

For the molecule `CC(=O)N1CCN(CCCCN2c3ccccc3Sc3cc(N=[N+]=[N-])ccc32)CC1`, the pEC50 was below 3.70 and the pIC50 was 5.18.

Take `Cc1cn(C2CC3OP(=O)(C(C)(C)C#N)OCC3O2)c(=O)[nH]c1=O` (stereo not given): the pEC50 was below 3.15 and the pIC50 is 3.35. With `O=[P+](O)c1ccccn1`, the outcome was inactive. Regarding `CCOC(=O)C1(O)N=C(c2ccccc2)c2ccccc2-n2cccc21` (stereo not given), the pEC50 was below 3.70 and the pIC50 is below 3.70.

For `Cn1cc(N)cc1C(=O)Nc1cc(C(=O)Nc2ccc3cc(S(=O)(=O)O)cc(S(=O)(=O)O)c3c2)n(C)c1`, the pEC50 was 4.44 and the pIC50 was 3.50. For the molecule `COc1ccc2c(c1)O[C@H]1c3ccc(O)cc3OC[C@@H]21`, the result was inactive. Same read-out and setting: for `N=C(N)c1csc([C@@H]2O[C@H](CO)[C@@H](O)[C@H]2O)n1` the value was “inactive”. The same measure, in the same setting: for `COC1=CC23CCCN2CCc2cc4c(cc2C3C1O)OCO4` (stereo not given) the value was “inactive”. `Cc1cc(=O)n2nc(CSc3nnc(Sc4cc(O)ccc4O)s3)sc2n1`: the pEC50 is below 3.70 and the pIC50 was 4.54. In the case of `Cc1ccc(S(=O)(=O)NC2CCCCO2)cc1` (stereo not given), the pEC50 was below 3.15 and the pIC50 is below 3.15.

Turning to `COc1ccc2c(c1)[n+](=O)c(C(=O)C/C(=N/NC(=O)C[N+](C)(C)C)C(=O)Nc1cccc(C)c1C)c(C)n2O`, the pEC50 was below 5.20 and the pIC50 is below 5.20. With `CN(C)C(=O)/N=N/C(=O)N(C)C`, the pEC50 is below 4.05 and the pIC50 was 4.17. Regarding `CC(=O)OC(OC(C)=O)c1c2ccccc2cc2ccccc12`, the pEC50 is below 3.70 and the pIC50 was 5.01. As to `C=C1CN(S(=O)(=O)c2ccc(C)cc2)CCCN(CCCC)CCCN(S(=O)(=O)c2ccc(C)cc2)C1`, the pEC50 was below 3.70 and the pIC50 was 5.72. For `CC(=O)c1c(-c2ccccc2)c(-c2ccc(OCCN(C)C)cc2)n2ccccc12`, the pEC50 is below 3.70 and the pIC50 was 5.12. Consider `CC(Nc1cc(Cl)cc(Cl)c1)c1ccncc1` (stereo not given), for which the pEC50 was below 3.70 and the pIC50 is 4.80.

Regarding `Cc1c(N2CCN(C)CC2)nc2ccc(Cl)cc2c1-c1ccccc1`, the pEC50 was below 4.83 and the pIC50 is below 4.83. In the case of `CN(C)/N=C/c1cn(C)c(=O)n(C)c1=O`, the pEC50 is below 3.70 and the pIC50 was below 3.70. Regarding `NC(CCc1nc(-c2ccc(Cl)cc2)cs1)C(=O)O` (stereo not given), the result was inactive. As to `C/C=C1\CC2C(=O)CCC2C2c3ccccc3OC12` (stereo not given), the pEC50 is below 3.70 and the pIC50 is below 3.70.

As to `CC1=NN(c2ccccc2)C(=O)CC1`, the pEC50 is below 2.88 and the pIC50 was below 2.88. As to `NC(N)=N/N=C(/CC1OC(=O)c2ccccc21)c1ccc2ccccc2c1` (stereo not given), the pEC50 is below 4.55 and the pIC50 is below 4.55.

With `COC(=O)C(C(=O)C(=O)Nc1ccc(C)cc1)c1nc2ccc([N+](=O)[O-])cc2[nH]c1=O` (stereo not given), the pEC50 is below 4.35 and the pIC50 was below 4.35.
